Data as given in ChEMBL document CHEMBL1201862, “PubChem BioAssay data set” (2004).
The source made the active and inactive calls.

Legend:
[1] = target: X-box-binding protein 1 (Homo sapiens, UniProt P17861); assay type: functional, Cricetulus griseus;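 further: confirmatory dose-response counter-screen serving a CHOP assay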
[2] = target: T1, Protein RecA (Mycobacterium tuberculosis, UniProt P9WHJ3); assay: Fluorescence Cell-Free Homogeneous Dose Retest to Identify Inhibitors of RecA-Intein Splicing Activity. [Related pubchem assays (depositor defined):AID2097, AID2223, AID489010, AID492950]; assay type: functional
T1 sequence (P9WHJ3 whole entry): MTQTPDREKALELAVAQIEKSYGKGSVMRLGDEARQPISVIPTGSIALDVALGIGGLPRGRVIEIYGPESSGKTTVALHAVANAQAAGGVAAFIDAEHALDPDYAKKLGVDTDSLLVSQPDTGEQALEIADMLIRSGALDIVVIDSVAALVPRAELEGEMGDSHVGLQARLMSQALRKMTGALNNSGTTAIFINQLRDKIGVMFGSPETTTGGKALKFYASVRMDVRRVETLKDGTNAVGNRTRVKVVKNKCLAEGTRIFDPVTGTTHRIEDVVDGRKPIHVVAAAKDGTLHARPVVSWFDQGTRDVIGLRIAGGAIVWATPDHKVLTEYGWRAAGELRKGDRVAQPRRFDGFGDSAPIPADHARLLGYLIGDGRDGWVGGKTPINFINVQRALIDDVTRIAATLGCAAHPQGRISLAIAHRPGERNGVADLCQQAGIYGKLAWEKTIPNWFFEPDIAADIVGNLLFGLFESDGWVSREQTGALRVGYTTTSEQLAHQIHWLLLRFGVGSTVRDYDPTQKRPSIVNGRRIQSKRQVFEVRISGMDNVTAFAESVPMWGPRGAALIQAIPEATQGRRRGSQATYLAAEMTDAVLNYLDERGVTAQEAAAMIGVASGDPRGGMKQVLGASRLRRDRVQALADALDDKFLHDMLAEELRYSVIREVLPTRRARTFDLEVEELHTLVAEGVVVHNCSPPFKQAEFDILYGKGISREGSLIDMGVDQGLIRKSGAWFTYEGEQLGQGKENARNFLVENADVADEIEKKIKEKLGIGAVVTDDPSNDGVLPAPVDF

[3] = target: T2, Replicative DNA helicase DnaB (Mycobacterium tuberculosis, UniProt P9WMR3); assay: DnaB intein splicing inhibitors, dose response, biochemical, cell-free fluorescence (AID 449749); assay type: functional
T2 sequence (P9WMR3 whole entry): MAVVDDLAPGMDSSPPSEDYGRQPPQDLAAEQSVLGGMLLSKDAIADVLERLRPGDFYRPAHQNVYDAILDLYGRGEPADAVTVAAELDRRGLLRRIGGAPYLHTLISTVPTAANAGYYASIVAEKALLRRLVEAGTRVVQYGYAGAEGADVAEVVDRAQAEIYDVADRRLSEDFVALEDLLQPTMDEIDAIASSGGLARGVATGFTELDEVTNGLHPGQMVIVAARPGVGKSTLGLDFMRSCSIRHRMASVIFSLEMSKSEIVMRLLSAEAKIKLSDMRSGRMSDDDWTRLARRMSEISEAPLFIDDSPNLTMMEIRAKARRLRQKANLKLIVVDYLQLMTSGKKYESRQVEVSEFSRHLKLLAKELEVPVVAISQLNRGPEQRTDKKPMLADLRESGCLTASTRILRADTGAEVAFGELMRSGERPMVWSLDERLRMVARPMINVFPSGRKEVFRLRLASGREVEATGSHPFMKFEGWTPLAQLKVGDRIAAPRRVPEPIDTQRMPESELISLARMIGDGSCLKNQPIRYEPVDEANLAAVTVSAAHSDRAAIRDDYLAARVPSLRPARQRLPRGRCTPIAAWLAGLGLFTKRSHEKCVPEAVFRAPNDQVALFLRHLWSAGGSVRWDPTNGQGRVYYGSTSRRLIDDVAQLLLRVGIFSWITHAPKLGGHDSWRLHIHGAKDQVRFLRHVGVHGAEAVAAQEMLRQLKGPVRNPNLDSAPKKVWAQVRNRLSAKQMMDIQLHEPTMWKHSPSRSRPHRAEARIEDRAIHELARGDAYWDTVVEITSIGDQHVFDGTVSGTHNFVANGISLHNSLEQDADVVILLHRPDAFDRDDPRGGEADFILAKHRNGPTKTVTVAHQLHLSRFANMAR

[4] = Cytotoxicity screening for potential Inhibitors of Bacterial Capsule Biogenesis. [Related pubchem assays (depositor defined):AID488970]; assay type: functional
[5] = tested on: INS1; assay: beta cell apoptosis inhibitors, cytokine rescue, dose response, luminescence, retest (AID 449756); assay type: functional, cell-based; settings: Rattus norvegicus, INS1;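 further: cell death triggered by IL-1 beta plus TNF-alpha plus IFN-gamma mixture; protective hits raise ATP signal compared with cytokine alone wells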
[6] = tested on: HeLa; assay: HeLa cell cytotoxicity, dose response, cytotoxicity control, 24 h, cherry-picked samples (AID 504726); assay type: functional, cell-based; settings: Homo sapiens;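 further: potency for cytotoxicity as loss of luminescence signal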
[7] = target: T3, ORF 73 (Human herpesvirus 8, UniProt O40947); assay: inhibitors of C-LANA binding to LBS DNA, dose response, biochemical, fluorescence polarization, cherry-picked samples (AID 504725); parameters: species or system Human gammaherpesvirus 8;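 further: fluorescence polarization of a labeled DNA duplex reporting LANA DNA binding; potency is for inhibitors that block LANA binding to the DNA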
T3 sequence (O40947 whole entry): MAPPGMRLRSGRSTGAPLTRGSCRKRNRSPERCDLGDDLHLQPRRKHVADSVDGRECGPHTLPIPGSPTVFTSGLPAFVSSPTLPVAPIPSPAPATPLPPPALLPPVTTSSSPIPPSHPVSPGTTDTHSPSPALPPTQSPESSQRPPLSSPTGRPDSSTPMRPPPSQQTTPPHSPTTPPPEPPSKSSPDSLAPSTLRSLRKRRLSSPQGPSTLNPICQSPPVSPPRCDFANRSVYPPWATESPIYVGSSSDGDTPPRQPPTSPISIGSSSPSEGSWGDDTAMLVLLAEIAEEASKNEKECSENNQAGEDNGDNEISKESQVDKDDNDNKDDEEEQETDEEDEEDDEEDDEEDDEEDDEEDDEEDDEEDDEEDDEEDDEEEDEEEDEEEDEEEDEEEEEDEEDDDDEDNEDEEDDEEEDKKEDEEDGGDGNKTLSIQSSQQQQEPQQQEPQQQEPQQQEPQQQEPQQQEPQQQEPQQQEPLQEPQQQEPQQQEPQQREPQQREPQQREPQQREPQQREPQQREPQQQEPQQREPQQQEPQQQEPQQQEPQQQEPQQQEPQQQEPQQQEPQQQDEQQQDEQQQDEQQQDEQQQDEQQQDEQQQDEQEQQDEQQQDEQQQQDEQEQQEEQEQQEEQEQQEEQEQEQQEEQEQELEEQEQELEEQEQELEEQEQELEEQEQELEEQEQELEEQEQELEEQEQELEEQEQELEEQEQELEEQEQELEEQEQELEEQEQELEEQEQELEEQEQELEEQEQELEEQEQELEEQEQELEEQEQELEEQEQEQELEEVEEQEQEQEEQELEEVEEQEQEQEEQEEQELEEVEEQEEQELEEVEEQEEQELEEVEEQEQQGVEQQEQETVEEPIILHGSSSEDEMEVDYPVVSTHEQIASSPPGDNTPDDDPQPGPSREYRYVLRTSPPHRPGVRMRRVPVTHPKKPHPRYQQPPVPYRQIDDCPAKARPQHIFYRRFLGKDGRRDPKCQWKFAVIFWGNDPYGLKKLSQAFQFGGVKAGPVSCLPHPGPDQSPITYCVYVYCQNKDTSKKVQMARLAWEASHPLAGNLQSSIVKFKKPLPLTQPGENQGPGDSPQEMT

[8] = tested on: Salmon testes DNA; assay: DNA intercalators displacing acridine orange, dose response, artefact control for KSHV LANA DNA-binding inhibitor project, biochemical, fluorescence polarization, cherry-picked samples, set 2 (AID 504727); parameters: species or system Salmonidae
[9] = target: T4, Endoribonuclease toxin MazF (Escherichia coli K-12, UniProt P0AE70); assay: MazF toxin RNase activators, dose response, biochemical, fluorescence, single-stranded RNA substrate, uHTS hits (AID 588481); assay type: functional
T4 sequence (P0AE70 whole entry): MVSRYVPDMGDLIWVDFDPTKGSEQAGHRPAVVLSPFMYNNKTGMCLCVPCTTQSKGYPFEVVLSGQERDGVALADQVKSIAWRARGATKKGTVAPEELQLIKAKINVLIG

[10] = target: T4, Endoribonuclease toxin MazF; assay: fluorescent RNA oligo signal without MazF, dose response, counter-screen for MazEF activator project, biochemical, fluorescence, single-stranded RNase substrate (AID 588502); assay type: functional
[11] = target: Lysosomal acid glucosylceramidase (Homo sapiens, UniProt P04062); assay: Dose response cell-based high throughput screening assay to identify enhancers of beta-glucosidase activity. [Related pubchem assays: 784 ]; assay type: functional
Chain of Lysosomal acid glucosylceramidase (P04062 whole entry): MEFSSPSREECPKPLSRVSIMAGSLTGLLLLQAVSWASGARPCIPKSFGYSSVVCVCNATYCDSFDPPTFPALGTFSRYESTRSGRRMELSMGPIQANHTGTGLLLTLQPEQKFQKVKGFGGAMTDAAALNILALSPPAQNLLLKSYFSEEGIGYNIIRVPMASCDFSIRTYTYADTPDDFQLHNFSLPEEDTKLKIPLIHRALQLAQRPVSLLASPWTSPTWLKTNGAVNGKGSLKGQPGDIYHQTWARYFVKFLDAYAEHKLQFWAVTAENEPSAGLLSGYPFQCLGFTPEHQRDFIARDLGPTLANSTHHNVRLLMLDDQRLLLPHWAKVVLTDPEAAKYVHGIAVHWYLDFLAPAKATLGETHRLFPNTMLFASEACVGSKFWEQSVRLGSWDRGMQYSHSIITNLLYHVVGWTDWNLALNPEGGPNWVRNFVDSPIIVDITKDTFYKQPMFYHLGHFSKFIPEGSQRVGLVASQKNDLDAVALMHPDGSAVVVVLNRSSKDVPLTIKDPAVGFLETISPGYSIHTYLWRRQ

[12] = target: T5, Eukaryotic translation initiation factor 2-alpha kinase 3 (Homo sapiens, UniProt Q9NZJ5); assay: Dose response cell-based high-throughput screening assay to measure PERK inhibition. [Related pubchem assays: 1416 ]; assay type: functional
T5 sequence (Q9NZJ5 whole entry): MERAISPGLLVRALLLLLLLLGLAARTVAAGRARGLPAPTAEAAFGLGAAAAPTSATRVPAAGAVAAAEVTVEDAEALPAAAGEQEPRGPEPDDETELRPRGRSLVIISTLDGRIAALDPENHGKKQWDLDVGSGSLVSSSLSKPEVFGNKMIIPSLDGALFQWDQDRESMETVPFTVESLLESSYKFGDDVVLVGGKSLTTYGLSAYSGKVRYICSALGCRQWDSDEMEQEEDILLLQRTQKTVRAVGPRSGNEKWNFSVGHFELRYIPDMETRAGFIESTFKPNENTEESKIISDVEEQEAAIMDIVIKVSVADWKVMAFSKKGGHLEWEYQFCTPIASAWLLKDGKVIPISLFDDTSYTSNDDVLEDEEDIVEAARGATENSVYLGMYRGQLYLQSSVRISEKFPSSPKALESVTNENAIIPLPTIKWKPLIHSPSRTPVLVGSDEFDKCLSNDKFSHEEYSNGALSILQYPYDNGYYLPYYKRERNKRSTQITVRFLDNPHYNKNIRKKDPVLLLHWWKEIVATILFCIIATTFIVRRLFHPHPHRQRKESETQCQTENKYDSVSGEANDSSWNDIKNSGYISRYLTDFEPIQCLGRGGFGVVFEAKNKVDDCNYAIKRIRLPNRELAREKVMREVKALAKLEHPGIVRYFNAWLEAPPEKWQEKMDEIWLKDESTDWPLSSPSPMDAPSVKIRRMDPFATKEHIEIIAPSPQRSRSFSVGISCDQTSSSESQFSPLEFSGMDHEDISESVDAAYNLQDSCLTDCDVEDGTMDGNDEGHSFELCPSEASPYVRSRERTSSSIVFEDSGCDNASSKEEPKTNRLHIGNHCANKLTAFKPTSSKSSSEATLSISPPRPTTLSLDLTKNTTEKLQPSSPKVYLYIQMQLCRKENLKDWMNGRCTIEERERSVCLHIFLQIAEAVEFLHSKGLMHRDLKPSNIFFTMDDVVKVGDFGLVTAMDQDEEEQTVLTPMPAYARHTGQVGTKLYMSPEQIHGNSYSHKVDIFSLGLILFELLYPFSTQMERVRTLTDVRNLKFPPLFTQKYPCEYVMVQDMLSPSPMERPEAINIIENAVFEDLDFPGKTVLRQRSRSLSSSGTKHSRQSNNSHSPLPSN

[13] = target: T5, Eukaryotic translation initiation factor 2-alpha kinase 3; assay: Counterscreen assay for PERK inhibitors: Dose response cell-based high throughput screening assay to measure inhibition of PERK at 6 hours. [Related pubchem assays: 1522, 1416 ]; assay type: functional
[14] = target: T6, Protein skinhead-1 (Caenorhabditis elegans, UniProt P34707); assay type: functional
T6 sequence (P34707 whole entry): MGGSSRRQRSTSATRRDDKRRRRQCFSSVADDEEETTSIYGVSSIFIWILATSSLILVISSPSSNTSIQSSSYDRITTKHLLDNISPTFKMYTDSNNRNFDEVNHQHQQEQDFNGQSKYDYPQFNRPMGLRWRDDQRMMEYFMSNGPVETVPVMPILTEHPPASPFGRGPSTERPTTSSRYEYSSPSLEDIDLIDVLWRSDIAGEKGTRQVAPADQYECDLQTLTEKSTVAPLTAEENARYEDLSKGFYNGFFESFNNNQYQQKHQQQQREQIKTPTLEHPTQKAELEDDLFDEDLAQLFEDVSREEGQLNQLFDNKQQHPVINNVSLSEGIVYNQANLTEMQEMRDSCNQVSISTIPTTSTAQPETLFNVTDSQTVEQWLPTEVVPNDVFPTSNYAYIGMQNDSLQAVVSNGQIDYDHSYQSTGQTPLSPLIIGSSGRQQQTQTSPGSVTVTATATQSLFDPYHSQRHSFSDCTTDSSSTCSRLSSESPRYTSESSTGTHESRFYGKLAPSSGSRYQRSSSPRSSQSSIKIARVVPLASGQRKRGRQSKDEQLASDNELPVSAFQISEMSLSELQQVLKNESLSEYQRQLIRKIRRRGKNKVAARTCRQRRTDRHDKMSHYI

Chain of X-box-binding protein 1 (P17861 whole entry): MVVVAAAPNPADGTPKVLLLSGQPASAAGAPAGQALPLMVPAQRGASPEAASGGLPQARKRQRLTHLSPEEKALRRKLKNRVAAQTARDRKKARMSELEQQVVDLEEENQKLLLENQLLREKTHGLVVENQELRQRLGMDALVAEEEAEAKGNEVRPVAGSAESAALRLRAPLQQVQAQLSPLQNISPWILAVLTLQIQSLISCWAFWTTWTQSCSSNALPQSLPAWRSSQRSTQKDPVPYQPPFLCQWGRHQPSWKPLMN

CC1(C)CC(C(CCN(Cc2ccccc2)C(=O)c2ccco2)c2ccc(F)cc2)CCO1 (centres undefined)
Absolute IC50 (XBP1) [1]: 10 µM
EC50 [2]: 20.9 µM (active)
AC50 [3]: 6.07 µM (active)

O=C(N/N=C/c1ccc(O)cc1O)c1ccc(NC(=O)C2CCCCC2)cc1
CC50 [4]: 8.95 µM (active)
AC50 [5]: 4.01 µM (active)

COc1ccc2c(c1)c1nc3ccccc3nc1n2CC(=O)OC(C)C
AC50 [6]: 216 µM (active)
AC50 [7]: 77 µM (active)
AC50 [8]: 134 µM (active)
EC50 [9]: > 99 µM (inactive)
EC50 [10]: 19.6 µM (active)

CC(=O)N1C(C(=O)O)CSC1c1cccc(C)c1 (centres undefined)
EC50 [11]: > 50 µM (not active)

CCOc1cc(C(N)=O)cc(Br)c1OC
EC50 [12]: > 55.7 µM (not active)
EC50 [13]: > 55.7 µM (not active)
IC50 [14]: > 100 µM (inactive)
